Measurements as given in patent publication US9617225B2 (VIROSTATICS SRL, priority 2012, dated 2017).
Where two headings read alike, the source gives them in different places.

How the values were obtained:
[1] = biological target: human CDK9/CyclinT kinase complex (Homo sapiens (Human), UniProt P50750); experiment: In Vitro CDK9/CyclinT Assay (IMAP fluorescent polarization); type: biochemical
Method: In Vitro CDK9/CyclinT Assay
The activity of the compounds described in the present invention can be determined by measuring the phosphorylation of a fluorescently-labeled peptide by human CDK9/CyclinT kinase complex by fluorescent polarization using a commercially available IMAP Screening Express Assay Kit (Molecular devices).
Test compounds were diluted in 100% DMSO to 5 mM stock concentration, then further dilutions were made in H2O or 100% DMSO to desirable concentrations. Each reaction consisted of 5 nM enzyme: CDK9/CyclinT (Proqinase cat#0371-0345-1), 400 nM TAMRA-Rbtide (synthetic 15-mer peptide derived from human retinoblastoma tumor suppressor protein labeled with TAMRA dye, Genecust Europe), 12 μM ATP (=Kmapp, Sigma-Aldrich) and kinase buffer: 20 mM MOPS pH 7 (Sigma-Aldrich), 1 mM DTT (Sigma-Aldrich), 10 mM MgCl2 (Sigma-Aldrich), 0.01% Tween 20 (Sigma-Aldrich).
For each reaction, 4 or 6 μl containing TAMRA-Rbtide, ATP and kianse buffer were combined with 2 μl diluted compound in H2O or 0.028 μl compound in 100% DMSO. The kinase reaction was started by the addition of 2 μl diluted enzyme. The reaction was allowed to run for 1 hour at room temperature. The reaction was stopped by adding 15 μl IMAP beads (1:400 beads in progressive (100% buffer A) 1× buffer).

Primary T cells = experiment: Cytotoxicity, viability by flow cytometry; type: cell-based
Method: Primary T cells are cultured and treated with different concentrations of the test compound. Viability is analysed by measuring through flow cytometry based techniques the percentage of viable cells, compared to untreated control=100%).

[2] = Table 4, toxic dose 50%, viable cells

Sequence of human CDK9/CyclinT kinase complex (P50750 whole entry): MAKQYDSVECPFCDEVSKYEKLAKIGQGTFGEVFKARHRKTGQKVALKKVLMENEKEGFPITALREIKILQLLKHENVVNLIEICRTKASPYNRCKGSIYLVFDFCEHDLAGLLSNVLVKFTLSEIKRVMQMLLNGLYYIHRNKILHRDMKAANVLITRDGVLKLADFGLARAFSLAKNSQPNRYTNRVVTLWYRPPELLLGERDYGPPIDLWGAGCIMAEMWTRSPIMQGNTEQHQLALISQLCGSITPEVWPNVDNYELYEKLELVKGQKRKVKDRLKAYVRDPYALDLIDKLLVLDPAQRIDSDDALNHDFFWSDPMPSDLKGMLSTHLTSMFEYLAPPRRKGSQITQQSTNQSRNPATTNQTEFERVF
Sequence of human CDK9/CyclinT kinase complex (O60563 whole entry partner): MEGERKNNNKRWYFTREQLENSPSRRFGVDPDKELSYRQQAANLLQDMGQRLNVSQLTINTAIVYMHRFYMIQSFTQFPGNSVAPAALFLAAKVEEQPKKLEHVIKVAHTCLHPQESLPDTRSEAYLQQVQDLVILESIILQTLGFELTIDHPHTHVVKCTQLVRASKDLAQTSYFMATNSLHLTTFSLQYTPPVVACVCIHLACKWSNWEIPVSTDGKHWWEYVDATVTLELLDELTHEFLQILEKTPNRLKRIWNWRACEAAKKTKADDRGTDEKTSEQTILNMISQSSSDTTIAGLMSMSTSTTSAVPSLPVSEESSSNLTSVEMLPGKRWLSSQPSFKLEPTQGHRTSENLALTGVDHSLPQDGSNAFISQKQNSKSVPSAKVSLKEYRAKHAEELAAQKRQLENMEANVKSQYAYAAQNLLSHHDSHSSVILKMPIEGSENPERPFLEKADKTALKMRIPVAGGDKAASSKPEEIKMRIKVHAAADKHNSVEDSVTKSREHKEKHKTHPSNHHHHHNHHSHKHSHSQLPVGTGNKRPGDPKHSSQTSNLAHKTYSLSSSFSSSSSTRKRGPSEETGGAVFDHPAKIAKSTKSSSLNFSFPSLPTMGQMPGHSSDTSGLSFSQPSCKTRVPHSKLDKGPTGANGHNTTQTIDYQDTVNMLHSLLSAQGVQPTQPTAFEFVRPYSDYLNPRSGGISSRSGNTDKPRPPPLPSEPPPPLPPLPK

Row | IC50 ([1]; Table 1) [µM] | SMILES | TD50 (Primary T cells) [µM] | other results
1 | < 1 | COc1ccc(Nc2cc(-c3cc(F)ccc3OC)ncn2)cc1O [Example 122, 5-[6-(5-Fluoro-2-methoxy-phenyl)-pyrimidin-4-ylamino]-2-methoxy-phenol] | >2 | –
2 | < 1 | CCOc1ccc(Nc2cc(-c3ccc(F)cc3OC)ncn2)cc1N [Example 105, 4-Ethoxy-N^1-[6-(4-fluoro-2-methoxy-phenyl)-pyrimidin-4-yl]-benzene-1,3-diamine] | 7 | –
3 | < 0.1 | COC(=O)c1cc(Nc2cc(-c3ccccc3OC)ncn2)ccc1OC [Example 30, Methyl 2-methoxy-5-(6-(2-methoxyphenyl)pyrimidin-4-ylamino)benzoate] | >0.5 | –
4 | > 10 | COc1ccc(Nc2cc(-c3ccccc3O)ncn2)cc1N [Example 70, 2-[6-(3-Amino-4-methoxy-phenylamino)-pyrimidin-4-yl]-phenol] | >10 | –
5 | < 10 | COc1ccc(Nc2cc(-c3ccccc3Oc3ccccc3)ncn2)cc1N [Example 77, 4-Methoxy-N^1-[6-(2-phenoxy-phenyl)-pyrimidin-4-yl]-benzene-1,3-diamine] | 10 | –
6 | < 0.1 | COc1ccccc1-c1cc(Nc2ccc(F)c(Cn3cnc4ccccc43)c2)ncn1 [Example 40, N-(3-((1H-Benzo[d]imidazol-1-yl)methyl)-4-fluorophenyl)-6-(2-methoxyphenyl)pyrimidin-4-amine] | 0.4 | –
7 | – | CCOC(=O)c1cc(Nc2cc(-c3ccccc3OC)ncn2)ccc1Cl [Example 14, Ethyl 2-chloro-5-(6-(2-methoxyphenyl)pyrimidin-4-ylamino)benzoate] | >0.5 | IC50 [1]: < 1 µM
8 | – | COc1ccc(Nc2cc(-c3ccc(F)cc3OC)ncn2)cc1OC(C)=O [Example 126, Acetic acid 5-[6-(4-fluoro-2-methoxy-phenyl)-pyrimidin-4-ylamino]-2-methoxy-phenyl ester] | – | IC50 [1]: < 1 µM; TD50 (Primary T cells; [2]): >2 µM
9 | < 1 | COC(=O)c1cc(Nc2cc(-c3ccccc3OC)ncn2)ccc1O [Example 21, Methyl 2-hydroxy-5-(6-(2-methoxyphenyl)pyrimidin-4-ylamino)benzoate] | >0.5 | –
10 | < 0.1 | CCOc1ccc(Nc2cc(-c3ccccc3OC)ncn2)cc1Cn1cnc2ccccc21 [Example 39, N-(3-((1H-Benzo[d]imidazol-1-yl)methyl)-4-ethoxyphenyl)-6-(2-methoxyphenyl)pyrimidin-4-amine] | 0.6 | –
11 | – | COc1ccc(Nc2cc(-c3ccccc3OC)ncn2)cc1OCc1ccccc1 [Example 36, N-(3-(Benzyloxy)-4-methoxyphenyl)-6-(2-methoxyphenyl)pyrimidin-4-amine] | – | IC50 [1]: < 10 µM; TD50 (Primary T cells; [2]): >5 µM
12 | – | COc1ccc(Nc2cc(-c3cccc(F)c3OC)ncn2)cc1N [Example 81, N^1-[6-(3-Fluoro-2-methoxy-phenyl)-pyrimidin-4-yl]-4-methoxy-benzene-1,3-diamine] | 3 | IC50 [1]: < 10 µM
13 | < 1 | COc1ccc(Nc2cc(-c3ccccc3OC)ncn2)cc1C=O [Example 29, 2-Methoxy-5-(6-(2-methoxyphenyl)pyrimidin-4-ylamino)benzaldehyde] | >0.5 | –
14 | < 1 | COc1ccccc1-c1cc(Nc2ccc(N3CCOCC3)c(CO)c2)ncn1 [Example 19, (5-(6-(2-Methoxyphenyl)pyrimidin-4-ylamino)-2-morpholinophenyl)methanol] | >0.5 | –
15 | – | COc1cc(F)ccc1-c1cc(Nc2cc(N)c(OC)c(F)c2)ncn1 [Example 90, 5-Fluoro-N^1-[6-(4-fluoro-2-methoxy-phenyl)-pyrimidin-4-yl]-4-methoxy-benzene-1,3-diamine] | >20 | IC50 [1]: < 1 µM
16 | < 1 | COc1ccc(Nc2cc(-c3ccc(F)cc3OC(C)C)ncn2)cc1N [Example 86, N^1-[6-(4-Fluoro-2-isopropoxy-phenyl)-pyrimidin-4-yl]-4-methoxy-benzene-1,3-diamine] | 4 | –
17 | – | COc1ccc(Nc2cc(-c3ccccc3OC)ncn2)cc1CNCc1ccccc1 [Example 1, N-(3-((Benzylamino)methyl)-4-methoxyphenyl)-6-(2-methoxyphenyl)pyrimidin-4-amine] | 3.5 | IC50 [1]: < 1 µM
18 | – | COc1ccccc1-c1cc(Nc2ccc(Cl)c(CN3C(=O)c4ccccc4C3=O)c2)ncn1 [Example 20, 2-(2-Chloro-5-(6-(2-methoxyphenyl)pyrimidin-4-ylamino)benzyl)isoindoline-1,3-dione] | – | IC50 [1]: < 10 µM; TD50 (Primary T cells; [2]): >0.5 µM
19 | – | CCOc1ccc(Nc2cc(-c3ccc(F)cc3OC)ncn2)cc1O [Example 114, 2-Ethoxy-5-[6-(4-fluoro-2-methoxy-phenyl)-pyrimidin-4-ylamino]-phenol] | 10 | IC50 [1]: < 1 µM
20 | – | COc1ccccc1-c1cc(Nc2ccc(N3CCN(C)CC3)c(CO)c2)ncn1 [Example 17] | >0.5 | –
21 | – | COc1ccc(Nc2cc(-c3ccccc3OC)ncn2)cc1CN(C)C [Example 35, N-(3-((Dimethylamino)methyl)-4-methoxyphenyl)-6-(2-methoxyphenyl)pyrimidin-4-amine] | 3 | –
22 | < 10 | COc1ccccc1-c1cc(Nc2ccc([N+](=O)[O-])c(F)c2)ncn1 [Example 57, (3-Fluoro-4-nitro-phenyl)-[6-(2-methoxy-phenyl)-pyrimidin-4-yl]-amine] | – | –
23 | – | COc1ccccc1-c1cc(Nc2ccc(N(C)C)c(C(N)=O)c2)ncn1 [Example 109, 2-Dimethylamino-5-[6-(2-methoxy-phenyl)-pyrimidin-4-ylamino]-benzamide] | – | IC50 [1]: < 1 µM
24 | – | COc1ccc(Nc2cc(-c3ccccc3OC)ncn2)cc1NS(C)(=O)=O [Example 9, N-(2-Methoxy-5-(6-(2-methoxyphenyl)pyrimidin-4-ylamino)phenyl)methanesulfonamide] | >1.5 | –
25 | > 10 | COc1ccc(Nc2cc(-c3cccc(F)c3OC)ncn2)cc1[N+](=O)[O-] [Example 80, [6-(3-Fluoro-2-methoxy-phenyl)-pyrimidin-4-yl]-(4-methoxy-3-nitro-phenyl)-amine] | – | –
26 | < 1 | COc1ccc(Nc2cc(-c3ccccc3OC)ncn2)cc1NC(=O)C(C)(C)C [Example 53, N-{2-Methoxy-5-[6-(2-methoxy-phenyl)-pyrimidin-4-ylamino]-phenyl}-2,2-dimethyl-propionamide] | – | –
27 | < 1 | CCOc1cc(F)ccc1-c1cc(Nc2ccc(OC)c([N+](=O)[O-])c2)ncn1 [Example 72, [6-(2-Ethoxy-4-fluoro-phenyl)-pyrimidin-4-yl]-(4-methoxy-3-nitro-phenyl)-amine] | – | –

Row | SMILES | IC50 ([1]; Table 1) [µM] | TD50 (Primary T cells) [µM] | other results
28 | COc1cc(F)ccc1-c1cc(Nc2cc(F)c(OC)c(C(N)=O)c2)ncn1 [Example 138, 3-Fluoro-5-[6-(4-fluoro-2-methoxy-phenyl)-pyrimidin-4-ylamino]-2-methoxy-benzamide] | < 10 | >20 | –
29 | COc1ccc(Nc2cc(-c3ccccc3OC)ncn2)cc1CO [Example 24, (2-Methoxy-5-(6-(2-methoxyphenyl)pyrimidin-4-ylamino)phenyl)methanol] | < 1 | >0.5 | –
30 | CCOc1cc(F)ccc1-c1cc(Nc2cc(F)c(OC)c(C(N)=O)c2)ncn1 [Example 139, 5-[6-(2-Ethoxy-4-fluoro-phenyl)-pyrimidin-4-ylamino]-3-fluoro-2-methoxy-benzamide] | < 10 | >20 | –
31 | CNC(=O)c1cc(Nc2cc(-c3ccccc3OC)ncn2)ccc1OC [Example 25, 2-Methoxy-5-(6-(2-methoxyphenyl)pyrimidin-4-ylamino)-N-methylbenzamide] | < 1 | >0.5 | –
32 | COc1ccccc1-c1cc(Nc2ccc(Cl)c(CO)c2)ncn1 [Example 6, (2-Chloro-5-(6-(2-methoxyphenyl)pyrimidin-4-ylamino)phenyl)methanol] | < 1 | >0.5 | –
33 | COc1ccc(Nc2cc(-c3ccccc3OC)ncn2)cc1C(=O)N(C)N [Example 46, 2-Methoxy-5-[6-(2-methoxy-phenyl)-pyrimidin-4-ylamino]-benzoic acid N-methyl-hydrazide] | < 1 | – | IC50 ([1]; Table 5): < 1 µM; TD50 (Primary T cells; [2]): >10 µM; TD50 (Primary T cells; Table 5): >10 µM
34 | CNC(=O)Nc1cc(Nc2cc(-c3ccccc3OC)ncn2)ccc1OC [Example 52, 1-{2-Methoxy-5-[6-(2-methoxy-phenyl)-pyrimidin-4-ylamino]-phenyl}-3-methyl-urea] | < 1 | – | –
35 | COc1ccc(Nc2cc(-c3ccccc3OC)ncn2)cc1C(=O)NCCO [Example 48, N-(2-Hydroxy-ethyl)-2-methoxy-5-[6-(2-methoxy-phenyl)-pyrimidin-4-ylamino]-benzamide] | < 1 | – | –
36 | COc1cc(F)ccc1-c1cc(Nc2ccc(N(C)C)c(C(N)=O)c2)ncn1 [Example 113, 2-Dimethylamino-5-[6-(4-fluoro-2-methoxy-phenyl)-pyrimidin-4-ylamino]-benzamide] | < 0.1 | – | –
37 | COC(=O)Nc1cc(Nc2cc(-c3ccccc3OC)ncn2)ccc1OC [Example 51, {2-Methoxy-5-[6-(2-methoxy-phenyl)-pyrimidin-4-ylamino]-phenyl}-carbamic acid methyl ester] | < 1 | – | –
